Results taken from patent US4603121A, “Enkephalin analogs” (G. D. Searle & Co., priority 1984, dated 1986).

Key:
[1] = tested on: PBQ-induced writhing in mice; assay: PBQ-Writhing assay; type: in vivo; settings: male mice, subcutaneous, ED50 from number of animals protected compared to saline controls
Experimental: PBQ-Writhing assay. Groups of 10 male mice weighing 20 to 35 grams are used for each dose and for the vehicle control. Writhing is induced 30 or 60 minutes following drug or drug vehicle administration by the intraperitoneal injection of a 0.025 percent solution of PBQ and 5 percent ethanol. The number of separate writhing motions occurring in a ten minute period starting 5 minutes following the PBQ challenge is counted for each mouse. A positive antinociceptive affect is assured when an individual animals' writhing frequency is less than or equal to 50 percent of the vehicle control group median frequency. ED50 values based on the number of positive responders per dose group is determined using the method of Litchfield and Wilcoxon. M. R. Fennessy et al. The Assessment of and Problems Involved in the Experimental Evaluation of Narcotic Analgesics. In Methods in Narcotics Research, Marcel Dekker, Inc., New York, 1975. H. Bomberg et al. Use of Writhing Test for Evaluating Analgesic Activity of Narcotic Analgesics, Proc. Soc. Ext. Biol. Med. 118: 763-766, 1965.
The compounds of the invention were evaluated with respect to analgesic activity utilizing the test procedures described previously. Set forth in Table I below are the test results in the writhing assay for certain preferred compounds of the invention within formula I. The data summarized represents the ED50 calculated on the basis of the number of animals protected at a dose of 10 mg/Kg of the active test compound compared to saline controls.

[2] = tested on: brain opiate receptor sites; settings: partially purified brain opiate receptor sites; cited from earlier work
opiate activity = settings: cited from earlier work
rat = settings: injected directly into the brain of the rat; cited from earlier work

| Compound | Activity (ED50 mg/Kg - Administered Subcutaneously) [1] [mg/kg] | binding to opiate receptor sites [2] | activity in bioassays for opiate activity (opiate activity) | analgesic activity (rat) |
| --- | --- | --- | --- | --- |
| 2,6-dimethyltyrosyl-D-norleucylglycyl-3-cyclohexyl-N-(6-methoxy-6-oxohexyl)-L-alaninamide, monohydrochloride(diastereomer-D) [Example 104] | 0.20 | – | – | – |
| COC(=O)CCCCCNC(=O)[C@H](CC1CCCCC1)N(C)C(=O)CNC(=O)[C@@H](CCSC)NC(=O)[C@@H](N)Cc1c(C)cc(O)cc1C.Cl [Example 43, 2,6-dimethyl-L-tyrosyl-D-methionylglycyl-N-(6-methoxy-6-oxohexyl)-3-cyclohexyl-N^α -methyl-L-alaninamide monohydrochloride] | 0.20 | – | – | – |
| CSCC[C@@H](NC(=O)[C@@H](N)Cc1c(C)cc(O)cc1C)C(=O)NCC(=O)N[C@@H](CC1CCCCC1)C(=O)NCCCCCC(=O)O.Cl [Example 127, 2,6-dimethyl-L-tyrosyl-D-methionylglycyl-N-(5-carboxypentyl)-3-cyclohexyl-L-alaninamide, monohydrochloride] | 0.09 | – | – | – |
| methionine enkephalin | – | binds stereospecifically | highly active | weak, fleeting analgesic activity |
